The source of these data is US20260374836A1, “PALMITOYLATED ANALOGUE OF PROLACTIN-RELEASING PEPTIDE FOR INTRANASAL ADMINISTRATION” (USTAV ORGANICKE CHEMIE A BIOCHEMIE AKADEMIE VED CR, V. V. I., priority 2022, published 2026).

Entries after “also recorded” stand apart in the source; their conditions may differ. Numbered stars: 1 amine (or outer) side, 2 acyl side, 3 side chain; on linkers, the order of the positions; unused ones are H or OH. Side chains are listed from the residue outwards. Ends that are not written are not given here. Peptide text beside a SMILES is read from it. * marks the point of attachment. γGlu = O=C(O)[C@H](CCC(=O)[*:2])N[*:1]; Palmitoyl = CCCCCCCCCCCCCCCC(=O)*

The conditions of data set [1]: background statement; cited from earlier work.
A further data set deals with fasted C57BL/6 mice. Put plainly: food intake test in fasted mice after SC or IN administration. The conditions noted are these: for food intake: fasted mice. The class given is in vivo, mouse (C57BL/6). As to the method: Male mice of strain C57BL/6 (Charles River, Germany) were kept in the accredited animal facility of the Institute of Organic Chemistry and Biochemistry of the Academy of Sciences of the Czech Republic (CAS), Prague in the facility of the Academy of Sciences in Krč at a temperature of 22±2 °C and had free access to food and tap water. The rhythm of light/dark was 12/12 h (light onset 6:00). The animals were treated according to the Act on the Protection of Animals against Cruelty (Czech Act No. 246/1992 Coll.). Males were fed a standard Ssniff R/M-H diet (Ssniff Spezialdiäten GmbH, Soest, Germany). 16 h before the application of palm^11-PrRP31, the mice were fasted with free access to water. Application of saline and palm^11-PrRP31 after dissolution in saline was performed by SC at 5 mg/kg (volume 0.15 ml/mouse) or IN using a fine-tip pipette at 0.01 and 0.1 mg/kg (5 μl/mouse). Twenty minutes after peptide injection, mice were given pre-weighed food. The food was then weighed every 30 minutes for 7 hours. The experiment was performed at least twice for each dose of palm^11-PrRP31 and one group of mice consisted of at least 6 mice. The results are expressed as a percentage of food intake compared to the saline-injected control group.
Graph-Pad Prism Software (San Diego, CA, USA), one-way ANOVA followed by Dunnett's post-hoc test was used for statistical evaluation. Differences in food intake between individuals injected with saline (control) and those injected with palm^11-PrRP31 were considered statistically significant at P<0.05.

In data set [2] the test system is blood glucose. Description: blood glucose after repeated administration to obese C57BL/6N mice on high-fat diet. In kind it is in vivo, mouse (C57BL/6N). The conditions noted are these: obese C57BL/6N mice on HFD, IN 0.3 mg/kg repeated. How it is done:
Male C57BL/6 mice (Charles River, Germany) were kept in the accredited animal facility of the Institute of Organic Chemistry and Biochemistry of the CAS, Prague, in the facility of the Academy of Sciences in Krč at a temperature of 22±2 °C and had free access to food and tap water. The light/dark rhythm was 12/12 hours (light onset 4:00). The animals were treated according to the Act on the Protection of Animals against Cruelty (Act No. 246/1992 Coll.). Males were fed at-house-made high-fat diet containing 60% fat (lard), 20% protein and 20% carbohydrate. From 8 weeks of age, they were fed this diet for 4 months. […] The compound was administered SC or IN twice daily 1 hour before lights out for 14 days. Throughout the period, the weight of the mice was monitored 3 times a week.

Another data set deals with obese WKY rats. Put plainly: change in weight after chronic (30 days) IP or IN administration to obese WKY rats on high-fat diet. The conditions noted are these: for weight change: obese WKY rats on HFD, 30 days. In kind it is in vivo, rat (Wistar Kyoto. As to the method:
(§1) Male WKY rats (Charles River, Germany) were kept in the accredited animal facility of the Institute of Physiology of the CAS, v.v.i., Prague, in the facility of the Academy of Sciences in Krč at a temperature of 22±2 °C and had free access to food and tap water. The light/dark rhythm was 12/12 hours (light onset 4:00). The animals were treated according to the Act on the Protection of Animals against Cruelty (Act No. 246/1992 Coll.). Males were fed a high-fat diet D12492 (Research Diets, USA) containing 60% fat, 20% protein and 20% carbohydrate. From 8 weeks of age, they were fed this diet for 4 months. They were then divided into groups of 5 animals (IP administration of saline or palm^11-PrRP31 in saline at 5 mg/kg) or 8 animals (IN administration of saline or palm^11-PrRP31 in saline at 0.3 mg/kg). The compound was administered IP or IN once daily 1 hour before lights out for 30 days. Throughout the period, the weight of the rats was monitored 3 times a week and at the end, glycated hemoglobin was measured in blood drawn from the tail. Glycated hemoglobin (HbAlc) was determined using the Tina-quant HbAlc Gen. 3 kit (Roche, Mannheim, Germany).
(§2) Graph-Pad Prism Software (San Diego, CA, USA), one-way ANOVA followed by Dunnett's post-hoc test was used for statistical evaluation. Differences in food intake between individuals injected with saline and those injected with palm^11-PrRP31 were considered statistically significant at P<0.05.

In data set [3] the test system is blood glucose. Description: blood glucose after repeated administration to obese WKY rats on high-fat diet. The class given is in vivo, rat (Wistar Kyoto. The conditions noted are these: obese WKY rats on HFD, IN 0.3 mg/kg repeated, same extent as IP 5 mg/kg. How it is done: as §1
The test system of data set [4] is mouse and rat models of high-fat diet-induced obesity. The conditions noted are these: chronic peripheral administration; cited from earlier work.
The next data set concerns GPR10. The conditions noted are these: previous studies (EP 3094643); cited from earlier work.
In data set [5] the test system is glycated hemoglobin (HbAlc). Description: glycated hemoglobin (HbA1c) in obese WKY rats after 30 days of treatment. In kind it is in vivo, rat (Wistar Kyoto. The conditions noted are these: obese WKY rats on HFD. As to the method:
as §1, §2

The next data set relates to obese C57BL/6 mice. Put plainly: change in weight after chronic (14 days) SC or IN administration to obese C57BL/6 mice on high-fat diet. In kind it is in vivo, mouse (C57BL/6). The conditions noted are these: for body weight change: obese C57BL/6 mice on HFD. How it is done: Male C57BL/6 mice (Charles River, Germany) were kept in the accredited animal facility of the Institute of Organic Chemistry and Biochemistry of the CAS, Prague, in the facility of the Academy of Sciences in Krč at a temperature of 22±2 °C and had free access to food and tap water. The light/dark rhythm was 12/12 hours (light onset 4:00). The animals were treated according to the Act on the Protection of Animals against Cruelty (Act No. 246/1992 Coll.). Males were fed at-house-made high-fat diet containing 60% fat (lard), 20% protein and 20% carbohydrate. From 8 weeks of age, they were fed this diet for 4 months. They were then divided into groups of 6 animals (SC administration of saline or palm^11-PrRP31 in saline at 5 mg/kg and IN administration of saline or palm^11-PrRP31 in saline at 0.3 mg/kg). The compound was administered SC or IN twice daily 1 hour before lights out for 14 days. Throughout the period, the weight of the mice was monitored 3 times a week.
as §2

Another data set concerns rats. The conditions noted are these: intracerebroventricular (ICV); cited from earlier work.
Setting [6] is: IN 0.3 mg/kg once daily, listed as Palm^11-PrRP31.

For the molecule `CCCCCCCCCCC[C@@H](C[C@@H]1OC(=O)[C@H]1CCCCCC)OC(=O)[C@H](CC(C)C)NC=O` [Orlistat], in data set [1], the side effects result was “diarrhea”.

For `CC(C)CC(N(C)C)C1(c2ccc(Cl)cc2)CCC1` (stereo not drawn) [Sibutramine], the side effects result in data set [1] is recorded as “increase the risk of heart disease”.

On to `CCCCCCCCCCCCCCCC(=O)N[C@@H](CCC(=O)NCCCC[C@H](NC(=O)[C@@H](NC(=O)[C@H](CCC(=O)O)NC(=O)[C@H](CCSC)NC(=O)[C@H](CO)NC(=O)[C@H](Cc1c[nH]cn1)NC(=O)[C@H](CCCNC(=N)N)NC(=O)[C@H](Cc1c[nH]cn1)NC(=O)[C@@H](NC(=O)[C@H](CCCNC(=N)N)NC(=O)[C@@H](N)CO)[C@@H](C)O)[C@@H](C)CC)C(=O)N[C@H](C(=O)N1CCC[C@H]1C(=O)N[C@@H](CC(=O)O)C(=O)N[C@H](C(=O)N[C@@H](CC(N)=O)C(=O)N1CCC[C@H]1C(=O)N[C@@H](C)C(=O)N[C@@H](Cc1c[nH]c2ccccc12)C(=O)N[C@@H](Cc1ccc(O)cc1)C(=O)N[C@@H](C)C(=O)N[C@@H](CO)C(=O)N[C@@H](CCCNC(=N)N)C(=O)NCC(=O)N[C@H](C(=O)N[C@@H](CCCNC(=N)N)C(=O)N1CCC[C@H]1C(=O)N[C@H](C(=O)NCC(=O)N[C@@H](CCCNC(=N)N)C(=O)N[C@@H](Cc1ccccc1)C(N)=O)C(C)C)[C@@H](C)CC)[C@@H](C)CC)[C@@H](C)O)C(=O)O` [palm^11-PrRP31] (H-SRTHRHSMEIK([γGlu-Palmitoyl])TPDINPAWYASRGIRPVGRF-NH2), for which the “significance P vs. saline, cumulative food intake” value in the data set on fasted C57BL/6 mice (FIG. 1, SC 5 mg/kg, IN 0.01 and 0.1 mg/kg, ANOVA, Dunnett's) was < 0.001. In addition, the “IN dose relative to SC dose for the same reduction in food intake, in words” value with fasted C57BL/6 mice (IN 0.01 and 0.1 mg/kg vs. SC 5 mg/kg) is recorded as “an order of magnitude lower dose”. Moreover, the “IN dose lower than SC dose to achieve the same effect on food intake” value in the data set with fasted C57BL/6 mice (IN vs. SC, feeding test in mice) is reported as 1-2 orders of magnitude. The food intake entry with fasted C57BL/6 mice (IN 0.01 mg/kg, vs. saline / SC 5 mg/kg) is “same reduction in food intake; also recorded: significantly reduced food intake”; in the data set with fasted C57BL/6 mice (IN 0.01 mg/kg, vs. saline / SC 5 mg/kg, listed as Palm^11-PrRP31), “reduced food intake in fasted mice very significantly and over a long period of time, to the same extent”; in the data set on fasted C57BL/6 mice (IN 0.1 mg/kg, vs. saline / SC 5 mg/kg), “same reduction in food intake; also recorded: significantly reduced food intake”; in the data set on fasted C57BL/6 mice (IN 0.1 mg/kg, vs. saline / SC 5 mg/kg, listed as Palm^11-PrRP31) it was “reduced food intake in fasted mice very significantly and over a long period of time, to the same extent”; in the data set with fasted C57BL/6 mice (SC 5 mg/kg, vs. saline, 5 mg/kg), “highly significant (P<0.001) reduction in food intake; also recorded: significantly reduced food intake”; in the data set with fasted C57BL/6 mice (SC 5 mg/kg, vs. saline, listed as Palm^11-PrRP31, 5 mg/kg) it was “reduced food intake in fasted mice very significantly and over a long period of time”. Also, the blood glucose entry in the data set with blood glucose [2] and in the data set on blood glucose [3] was “decreased blood glucose” in each case. Further, the “significance P vs. saline, change in weight” value was < 0.001 with obese WKY rats (FIG. 2, IN 0.3 mg/kg, IP 5 mg/kg, ANOVA, Dunnett's) and < 0.001 in the data set on obese C57BL/6 mice (FIG. 4, IN 0.3 mg/kg, SC 5 mg/kg twice daily, ANOVA, Dunnett's). Moreover, the “IN dose lower than IP dose for the same weight reduction” value in the data set on obese WKY rats (IN 0.3 mg/kg vs. IP dose, rats) stood at 16 times lower. The weight change entry in the data set on obese WKY rats (IN 0.3 mg/kg once daily) is “reduced weight; also recorded: highly significant weight reduction”; in the data set on obese WKY rats (setting [6]) it was “reduced the weight of rats after chronic administration to the same extent”; in the data set on obese WKY rats (IP 5 mg/kg once daily, 5 mg/kg), “highly significant weight reduction”; in the data set on obese WKY rats (IP 5 mg/kg once daily, listed as Palm^11-PrRP31, 5 mg/kg), “reduced the weight of rats after chronic administration to the same extent”. For the same molecule, the “anti-obesity and anti-diabetic effects” value in data set [4] is “anti-obesity and anti-diabetic effects”. The “potency among analogues of PrRP31” value in the data set on GPR10 is reported as “most potent analogue of the natural peptide PrRP31”. Moreover, the figures for the “glycated hemoglobin (HbAlc)” value in data set [5] (IN 0.3 mg/kg once daily), in data set [5] (setting [6]) and in [5] (IP 5 mg/kg once daily) were “significant decrease in blood glycated hemoglobin”, “significantly reduced glycated hemoglobin” and “significantly reduced glycated hemoglobin”, respectively. Further, the body weight change entry in the data set with obese C57BL/6 mice (IN 0.3 mg/kg (twice daily, 14 days)) is listed as “reduced weight; also recorded: highly significant weight reduction”; in the data set with obese C57BL/6 mice (IN 0.3 mg/kg (twice daily, 14 days), listed as Palm^11-PrRP31) it was “highly significant weight reduction”; in the data set with obese C57BL/6 mice (SC 5 mg/kg twice daily, 14 days) it was “highly significant weight reduction”.

As for “PrRP31: natural prolactin-releasing peptide form containing 31 amino acids (SRTHRHSMEIRTPDINPAWYASRGIRPVGRF; ends and bridges not checked; UniProt P81277 23-53, looked up)”, in the data set with rats, the food intake result is given as “significant short-term reduction in food intake” and the weight result is reported as “weight loss”.
